Test results: patent publication US11000033B2, “Ketone or oxime compound, and herbicide” (NISSAN CHEMICAL CORPORATION, priority 2014, dated 2021)

Tests used:
Assay type in all cases: in vivo
Setaria viridis [1] = test: Test Example 5: herbicidal effect by foliage application, plastic box (symbol G); conditions: 320 g/ha, 3 weeks after application
Outline: (§1)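 After sowing into sterilized diluvial soil and growing two weeks under glass at 25° C. to 30° C., seedlings receive a uniform foliar spray of diluted emulsion. Damage is judged visually three weeks on.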

soybean [2] = test: Test Example 4: effect on crop by soil treatment (symbol d)
Outline: (§2)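 Crop seeds, among them rice, wheat, beet and rapeseed, were sown in sterilized diluvial soil and covered with about 1.5 cm of soil. Boxes were kept in a greenhouse at 25° C. to 30° C. for plant growth.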

Chenopodium album = test: Test Example 5: herbicidal effect by foliage application, plastic box (symbol O); conditions: 320 g/ha, 3 weeks after application
Outline: as §1

Scirpus juncoides = test: Test Example 1: herbicidal activity, application before weed generation in submerged conditions (symbol B); conditions: application herbicide amount 320 g/ha
Outline: (§3)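 Ratings (5: ≥90%, near complete withering; 4: 70–<90%; 3: 40–<70%; 2: 20–<40%; 1: 5–<20%; 0: ≤5%) were assigned 3 weeks after the diluted emulsion was applied to the water surface of freshly sown, submerged pots.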

Setaria viridis [3] = test: Test Example 4: herbicidal effect by soil treatment (symbol G)
Outline: (§4)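 Seeds were sown in sterilized diluvial soil, covered with about 1.5 cm of soil, and the soil surface was sprayed with a water-diluted emulsion of the compound at a predetermined rate. Plants grew in a greenhouse at 25° C. to 30° C.; effects were scored visually 3 weeks after application.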

Lolium multiflorum Lam. = test: Test Example 4: herbicidal effect by soil treatment (symbol K)
Outline: as §4

beet = test: Test Example 4: effect on crop by soil treatment (symbol f); conditions: 320 g/ha
Outline: as §2

[4] = test system: Echinochloa crus-galli var. crus-galli; test: Test Example 5: herbicidal effect by foliage application, plastic box (symbol H); conditions: 320 g/ha, 3 weeks after application
Outline: as §1

Galium spurium = test: Test Example 5: herbicidal effect by foliage application, plastic box (symbol Q); conditions: 320 g/ha, 3 weeks after application
Outline: as §1

wheat = test: Test Example 4: effect on crop by soil treatment (symbol e)
Outline: as §2

Amaranthus retroflexus [5] = test: Test Example 5: herbicidal effect by foliage application, plastic box (symbol N); conditions: 320 g/ha, 3 weeks after application
Outline: as §1

Avena fatua = test: Test Example 4: herbicidal effect by soil treatment (symbol I)
Outline: as §4

Amaranthus retroflexus [6] = test: Test Example 4: herbicidal effect by soil treatment (symbol N)
Outline: as §4

Abutilon theophrasti = test: Test Example 5: herbicidal effect by foliage application, plastic box (symbol M); conditions: 320 g/ha, 3 weeks after application
Outline: as §1

Monochoria vaginalis = test: Test Example 1: herbicidal activity, application before weed generation in submerged conditions (symbol C); conditions: application herbicide amount 320 g/ha
Outline: as §3

soybean [7] = test: Test Example 5: effect on crop by foliage application, plastic box (symbol d); conditions: 320 g/ha, 3 weeks after application
Outline: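 A greenhouse held between 25° C. and 30° C. was used to grow plants sown spot-wise, beneath ~1.5 cm of soil, in boxes of sterilized diluvial soil.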

[8] = test system: Echinochloa crus-galli var. crus-galli; test: Test Example 3: herbicidal effect by foliage application, Wagner pot (symbol H); conditions: application herbicide amount 320 g/ha
Outline: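 Seeds sown in alluvial soil kept under 0.1–0.5 cm water, greenhouse 25–30 °C; 14 d growth. Leaves treated by small sprayer with water-diluted emulsion at a predetermined rate. Effect graded by set scale, 3 weeks.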

Apera spica-venti = test: Test Example 4: herbicidal effect by soil treatment (symbol L); conditions: application herbicide amount 320 g/ha
Outline: as §4

[9] = application herbicide amount 320 g/ha

SMILES	Herbicidal effect grade, B: Scirpus juncoides (Scirpus juncoides)	Herbicidal effect grade, C: Monochoria vaginalis (Monochoria vaginalis)	herbicidal effect on H (Echinochloa crus-galli var. crus-galli), grade 0-5 [8]	G: Setaria viridis, herbicidal effect grade (Setaria viridis [1])	d: soybean, effect on crop grade (soybean [2]; [9])	G: Setaria viridis, herbicidal effect grade (Setaria viridis [3]; [9])	K: Lolium multiflorum Lam., herbicidal effect grade (Lolium multiflorum Lam.; [9])	H: Echinochloa crus-galli var. crus-galli, herbicidal effect grade [4]	Q: Galium spurium, herbicidal effect grade (Galium spurium)	L: Apera spica-venti, herbicidal effect grade (Apera spica-venti)	e: wheat, effect on crop grade (wheat; [9])	N: Amaranthus retroflexus, herbicidal effect grade (Amaranthus retroflexus [5])	I: Avena fatua, herbicidal effect grade (Avena fatua; [9])	N: Amaranthus retroflexus, herbicidal effect grade (Amaranthus retroflexus [6]; [9])	M: Abutilon theophrasti, herbicidal effect grade (Abutilon theophrasti)	d: soybean, effect on crop grade (soybean [7])	O: Chenopodium album, herbicidal effect grade (Chenopodium album)	other results
CON=C(C)CC1CC(OS(=O)(=O)CCCCl)=C(c2c(C)cc(C)cc2C)C1=O (centres unmarked) [1-142]	5 (Herbicidal ratio of 90% or more (almost completely withered))	2 (Herbicidal ratio of 20% or higher and lower than 40%)	5 (Herbicidal ratio of 90% or more (almost completely withered))															G: Setaria viridis, herbicidal effect (criteria 0-5) (Setaria viridis [1]): 5 (Herbicidal ratio of 90% or more (almost completely withered)); d: soybean, effect grade on crop (soybean [2]; 320 g/ha): 0 (Herbicidal ratio of 5% or lower (almost no effect)); O: Chenopodium album, herbicidal effect (criteria 0-5) (Chenopodium album): 2 (Herbicidal ratio of 20% or higher and lower than 40%); G: Setaria viridis, herbicidal effect grade (Setaria viridis [3]; 320 g/ha): 5 (Herbicidal ratio of 90% or more (almost completely withered)); K: Lolium multiflorum Lam., herbicidal effect grade (Lolium multiflorum Lam.; 320 g/ha): 5 (Herbicidal ratio of 90% or more (almost completely withered)); f: beet, effect grade on crop (beet): 0 (Herbicidal ratio of 5% or lower (almost no effect)); H: Echinochloa crus-galli var. crus-galli, herbicidal effect (criteria 0-5) [4]: 5 (Herbicidal ratio of 90% or more (almost completely withered)); Q: Galium spurium, herbicidal effect (criteria 0-5) (Galium spurium): 3 (Herbicidal ratio of 40% or higher and lower than 70%); e: wheat, effect grade on crop (wheat; 320 g/ha): 3 (Herbicidal ratio of 40% or higher and lower than 70%); N: Amaranthus retroflexus, herbicidal effect (criteria 0-5) (Amaranthus retroflexus [5]): 0 (Herbicidal ratio of 5% or lower (almost no effect)); I: Avena fatua, herbicidal effect grade (Avena fatua; 320 g/ha): 3 (Herbicidal ratio of 40% or higher and lower than 70%); N: Amaranthus retroflexus, herbicidal effect grade (Amaranthus retroflexus [6]; 320 g/ha): 0 (Herbicidal ratio of 5% or lower (almost no effect)); M: Abutilon theophrasti, herbicidal effect (criteria 0-5) (Abutilon theophrasti): 4 (Herbicidal ratio of 70% or higher and lower than 90%); d: soybean, effect on crop (criteria 0-5) (soybean [7]): 3 (Herbicidal ratio of 40% or higher and lower than 70%)
CCC(=O)CCC1CC(O)=C(c2c(C)cc(C)cc2C)C1=O (centres unmarked) [5-001]	0 (Herbicidal ratio of 5% or lower (almost no effect))	0 (Herbicidal ratio of 5% or lower (almost no effect))	2 (Herbicidal ratio of 20% or higher and lower than 40%)	3 (Herbicidal ratio of 40% or higher and lower than 70%)	0 (Herbicidal ratio of 5% or lower (almost no effect))	0 (Herbicidal ratio of 5% or lower (almost no effect))	5 (Herbicidal ratio of 90% or more (almost completely withered))	3 (Herbicidal ratio of 40% or higher and lower than 70%)	0 (Herbicidal ratio of 5% or lower (almost no effect))	5 (Herbicidal ratio of 90% or more (almost completely withered))	0 (Herbicidal ratio of 5% or lower (almost no effect))	0 (Herbicidal ratio of 5% or lower (almost no effect))	0 (Herbicidal ratio of 5% or lower (almost no effect))	0 (Herbicidal ratio of 5% or lower (almost no effect))	0 (Herbicidal ratio of 5% or lower (almost no effect))	0 (Herbicidal ratio of 5% or lower (almost no effect))		
C#CCOC1=C(c2c(C)cc(C)cc2C)C(=O)C(CC(C)=NOC)C1 (centres unmarked) [1-008]	3 (Herbicidal ratio of 40% or higher and lower than 70%)	0 (Herbicidal ratio of 5% or lower (almost no effect))	5 (Herbicidal ratio of 90% or more (almost completely withered))	5 (Herbicidal ratio of 90% or more (almost completely withered))				4 (Herbicidal ratio of 70% or higher and lower than 90%)	0 (Herbicidal ratio of 5% or lower (almost no effect))			0 (Herbicidal ratio of 5% or lower (almost no effect))			2 (Herbicidal ratio of 20% or higher and lower than 40%)	2 (Herbicidal ratio of 20% or higher and lower than 40%)	0 (Herbicidal ratio of 5% or lower (almost no effect))	d (soybean) effect on crop grade (soybean [2]; [9]): 0 (Herbicidal ratio of 5% or lower (almost no effect)); G (Setaria viridis) herbicidal effect grade (Setaria viridis [3]; [9]): 4 (Herbicidal ratio of 70% or higher and lower than 90%); K (Lolium multiflorum Lam.) herbicidal effect grade (Lolium multiflorum Lam.; [9]): 5 (Herbicidal ratio of 90% or more (almost completely withered)); L (Apera spica-venti) herbicidal effect grade (Apera spica-venti): 5 (Herbicidal ratio of 90% or more (almost completely withered)); e (wheat) effect on crop grade (wheat; [9]): 0 (Herbicidal ratio of 5% or lower (almost no effect)); I (Avena fatua) herbicidal effect grade (Avena fatua; [9]): 0 (Herbicidal ratio of 5% or lower (almost no effect)); N (Amaranthus retroflexus) herbicidal effect grade (Amaranthus retroflexus [6]; [9]): 0 (Herbicidal ratio of 5% or lower (almost no effect))
Cc1cc(C)c(C2=C(O)CC(CC(=O)C(C)C)C2=O)c(C)c1 (centres unmarked) [2-016]	0 (Herbicidal ratio of 5% or lower (almost no effect))	0 (Herbicidal ratio of 5% or lower (almost no effect))	5 (Herbicidal ratio of 90% or more (almost completely withered))	5 (Herbicidal ratio of 90% or more (almost completely withered))	0 (Herbicidal ratio of 5% or lower (almost no effect))	5 (Herbicidal ratio of 90% or more (almost completely withered))	5 (Herbicidal ratio of 90% or more (almost completely withered))	5 (Herbicidal ratio of 90% or more (almost completely withered))	0 (Herbicidal ratio of 5% or lower (almost no effect))	2 (Herbicidal ratio of 20% or higher and lower than 40%)	0 (Herbicidal ratio of 5% or lower (almost no effect))	3 (Herbicidal ratio of 40% or higher and lower than 70%)	0 (Herbicidal ratio of 5% or lower (almost no effect))	0 (Herbicidal ratio of 5% or lower (almost no effect))	4 (Herbicidal ratio of 70% or higher and lower than 90%)	3 (Herbicidal ratio of 40% or higher and lower than 70%)	0 (Herbicidal ratio of 5% or lower (almost no effect))	
CON=C(C)CC1CC(O)=C(c2c(C)cc(C(=O)OC)cc2C)C1=O (centres unmarked) [6-023]	0 (Herbicidal ratio of 5% or lower (almost no effect))	0 (Herbicidal ratio of 5% or lower (almost no effect))	5 (Herbicidal ratio of 90% or more (almost completely withered))	5 (Herbicidal ratio of 90% or more (almost completely withered))	0 (Herbicidal ratio of 5% or lower (almost no effect))	3 (Herbicidal ratio of 40% or higher and lower than 70%)	5 (Herbicidal ratio of 90% or more (almost completely withered))	5 (Herbicidal ratio of 90% or more (almost completely withered))	0 (Herbicidal ratio of 5% or lower (almost no effect))	4 (Herbicidal ratio of 70% or higher and lower than 90%)	0 (Herbicidal ratio of 5% or lower (almost no effect))	0 (Herbicidal ratio of 5% or lower (almost no effect))	0 (Herbicidal ratio of 5% or lower (almost no effect))	0 (Herbicidal ratio of 5% or lower (almost no effect))	0 (Herbicidal ratio of 5% or lower (almost no effect))	0 (Herbicidal ratio of 5% or lower (almost no effect))		
